Laboratory results reported in ChEMBL document CHEMBL3751812, “Novel skeleton compound Allomyrinanoid A and two purine alkaloids from the adult of Allomyrina dichotoma L” (2016).

What was measured:
Type in all cases: functional
Settings in all cases: read-out: DIZ
Bacillus subtilis [1] = assay: Antibacterial activity against Bacillus subtilis assessed as growth inhibition at 10 mg/ml by drug sensitive assay
Staphylococcus aureus [2] = assay: Antibacterial activity against Staphylococcus aureus assessed as growth inhibition at 1 mg/ml by drug sensitive assay
Bacillus subtilis [3] = assay: Antibacterial activity against Bacillus subtilis assessed as growth inhibition at 1 mg/ml by drug sensitive assay
Staphylococcus aureus [4] = assay: Antibacterial activity against Staphylococcus aureus assessed as growth inhibition at 10 mg/ml by drug sensitive assay
Escherichia coli = assay: Antibacterial activity against Escherichia coli assessed as growth inhibition at 10 mg/ml by drug sensitive assay

Row | SMILES | zone of inhibition at 10000 µg/mL (Bacillus subtilis [1]) | zone of inhibition at 1000 µg/mL (Staphylococcus aureus [2]) | zone of inhibition at 1000 µg/mL (Bacillus subtilis [3]) | zone of inhibition at 10000 µg/mL (Staphylococcus aureus [4]) | zone of inhibition at 10000 µg/mL (Escherichia coli)
1 | CNC(=O)[C@H]1CCC[C@@H](C(=O)O)[C@@H](C)[C@H](C)[C@H](C)[C@@H]1C | 4.5 mm | – | – | – | –
2 | CC1(C)S[C@@H]2[C@H](NC(=O)Cc3ccccc3)C(=O)N2[C@H]1C(=O)O [PENICILLIN G] | 18 mm | 9 mm | 10 mm | 17 mm | –
3 | Nc1ncnc2c1ncn2/C=N\O (stereo in doubt; 2) | – | – | – | – | 5.5 mm
